From patent publication US11142527B2, “Dihydropyrimidine compounds and uses thereof in medicine” (SUNSHINE LAKE PHARMA CO., LTD., priority 2017, dated 2021)

test system: HBV; assay: Test of anti HBV activity in vitro (viral DNA by qPCR); format: cell-based; details: Hepatitis B virus; HepG2.2.15 cells, viral DNA in cell culture supernatant by qPCR; read-out: EC50 values of the compound of the invention on viral replication
Experimental: Test 1: Test Method of Calculating Anti HBV EC50
HBV Cell Line and Culture Conditions
HepG2.2.15 (SELLS, PNAS, 1987 and SELLS, JV, 1988) chromosomes have an integrated complete HBV genome, and stably express viral RNA and viral protein. HepG2.2.15 cells can secrete mature HBV particles, HBsAg and HBeAg, to medium. HepG2.2.15 cells were cultured in DMEM containing 10% fetal bovine serum, 100 U/mL penicillin, 100 U/mL streptomycin, 1% non essential amino acid, 1 mM sodium pyruvate and 300 μg/mL G418.
Viral particles DNA secreted from HepG2.2.15 cells can be quantified by qPCR, and the effect of the compound on viral replication can be detected.
Test of Anti HBV Activity In Vitro
8000 HepG 2.2.15 cells per well were seeded into a 96-well plate, the plate was cultured at 37° C. and 5% CO2 for 3 days till the cells grew to full wells. Old liquid medium can be removed and replaced with new medium (200 μL) on day 0.
Formulating the compound and treating the cells in the experiment of anti virus: the compound was dissolved in DMSO to a concentration of 30 mM, and then the compound solution was diluted with DMSO to a concentration of 800 μM, and then eight dilutions at 4 fold were performed, the highest concentration is 800 μM. The serial diluted compound was added to the above plate at 1 μL per well, the highest final concentration in the experiment is 4 μM (200 fold dilution). TDF (tenofovir dipiroxil fumarate, Selleck, Cat S1400) has a highest concentration of 4 μM as a positive control. 1 μL of DMSO was added in to the […] at a final concentration of 0.5%, TDF was added in to the […] at a final concentration of 1 μM.
Detection of Viral Genomic DNA by aPCR
Primer: HBV-For-202, […]; HBV-Rev-315, […]. Copies of virus can be calculated using a standard curve plotted by using plasmid containing HBV genome and using SYBR Premix Ex Taq II—Takara DRR081S kit and 1 μL cell culture supernatant as a template. EC50 values of the compound on viral replication were calculated by a four parametric nonlinear regression model using Graphpad Prism 5 software to manage concentration—viral copy number.

Compound | EC50
COC(=O)C1=C(CN2CCN3C(=O)N(C(C)(C)c4ccc(-c5ccc(C(=O)O)cc5)cc4)C[C@@H]3C2)NC(c2nccs2)=N[C@H]1c1ccc(F)cc1Cl (stereo in doubt) [Example 11, 4′-(2-((S)-7-(((R)-6-(2-chloro-4-fluorophenyl)-5-(methoxycarbonyl)-2-(thiazol-2-yl)-3,6-dihydropyrimidin-4-yl)methyl)-3-oxohexahydroimidazo[1,5-a]pyrazin-2(3H)-yl)prop-2-yl)-[1,1′-diphenyl]-4-carboxylic acid] | 32.5 nM
COC(=O)C1=C(CN2CCN3C(=O)N(CC#Cc4ccc(C(=O)O)cc4)C[C@@H]3C2)NC(c2nccs2)=N[C@H]1c1ccc(F)cc1Cl [Example 1, 4-(3-((S)-7-(((R)-6-(2-chloro-4-fluorophenyl)-5-(methoxycarbonyl)-2-(thiazol-2-yl)-3,6-dihydropyrimidin-4-yl)methyl)-3-oxohexahydroimidazo[1,5-a]pyrazin-2(3H)-yl)prop-1-yn-1-yl)benzoic acid] | 8.45 nM
COC(=O)C1=C(CN2CCN3C(=O)N(CC#Cc4cccc(C(=O)O)c4)C[C@@H]3C2)NC(c2nccs2)=N[C@H]1c1ccc(F)cc1Cl [Example 2, 3-(3-((S)-7-(((R)-6-(2-chloro-4-fluorophenyl)-5-(methoxycarbonyl)-2-(thiazol-2-yl)-3,6-dihydropyrimidin-4-yl)methyl)-3-oxohexahydroimidazo[1,5-a]pyrazin-2(3H)-yl)prop-1-yn-1-yl)benzoic acid] | 10.4 nM
COC(=O)C1=C(CN2CCN3C(=O)N(CC#Cc4ccc(C(=O)O)cc4F)C[C@@H]3C2)NC(c2nccs2)=N[C@H]1c1ccc(F)cc1Cl [Example 4, 4-(3-((S)-7-(((R)-6-(2-chloro-4-fluorophenyl)-5-(methoxycarbonyl)-2-(thiazol-2-yl)-3,6-dihydropyrimidin-4-yl)methyl)-3-oxohexahydroimidazo[1,5-a]pyrazin-2(3H)-yl)prop-1-yn-1-yl)-3-fluorobenzoic acid] | 19.8 nM
COC(=O)C1=C(CN2CCN3C(=O)N(c4ccc(Oc5ccc(C(=O)O)cc5)cc4)C[C@@H]3C2)NC(c2nccs2)=N[C@H]1c1ccc(F)cc1Cl [Example 6, 4-(4-((S)-7-(((R)-6-(2-chloro-4-fluorophenyl)-5-(methoxycarbonyl)-2-(thiazol-2-yl)-3,6-dihydropyrimidin-4-yl)methyl)-3-oxohexahydroimidazo[1,5-a]pyrazin-2(3H)-yl)phenoxy) benzoic acid] | 14 nM
COC(=O)C1=C(CN2CCN3C(=O)N(c4ccc(Oc5ccc(C(=O)O)cc5)nc4)C[C@@H]3C2)NC(c2nccs2)=N[C@H]1c1ccc(F)cc1Cl [Example 7, 4-((5-((S)-7-(((R)-6-(2-chloro-4-fluorophenyl)-5-(methoxycarbonyl)-2-(thiazol-2-yl)-3,6-dihydropyrimidin-4-yl)methyl)-3-oxohexahydroimidazo[1,5-a]pyrazin-2(3H)-yl)pyridin-2-yl)oxy)benzoic acid] | 8.78 nM
COC(=O)C1=C(CN2CCN3C(=O)N(Cc4ccc(-c5ccc(C(=O)O)cc5)cc4)C[C@@H]3C2)NC(c2nccs2)=N[C@H]1c1ccc(F)cc1Cl [Example 10, 4′-(((S)-7-(((R)-6-(2-chloro-4-fluorophenyl)-5-(methoxycarbonyl)-2-(thiazol-2-yl)-3,6-dihydroprimidin-4-yl)methyl)-3-oxohexahydroimidazo[1,5-a]pyrazin-2(3H)-yl)methyl)-[1, 1′-diphenyl]-4-carboxylic acid] | 19.9 nM
COC(=O)C1=C(CN2CCN3C(=O)N(c4ccc(-c5ccc(C(=O)O)cc5)cc4)C[C@@H]3C2)NC(c2nccs2)=N[C@H]1c1ccc(F)cc1Cl [Example 12] | 13 nM
COC(=O)C1=C(CN2CCN3C(=O)N(c4cc(F)cc(Oc5ccc(C(=O)O)cc5F)c4)C[C@@H]3C2)NC(c2nccs2)=N[C@H]1c1ccc(F)cc1Cl [Example 13, 4-(3-((S)-7-(((R)-6-(2-chloro-4-fluorophenyl)-5-(methoxycarbonyl)-2-(thiazol-2-yl)-3,6-dihydropyrimidin-4-yl)methyl)-3-oxohexahydroimidazo[1,5-a]pyrazin-2(3H)-yl)-5-fluorophenoxy)-3-fluorobenzoic acid] | 22.1 nM
